Reference: patent publication US20240317706A1, “COMPOUNDS THAT MEDIATE PROTEIN DEGRADATION AND METHODS OF USE THEREOF” (Monte Rosa Therapeutics, Inc., priority 2021, published 2024)
pKi: −log10 of the molar value.

Tests used:
[1] = biological target: CRBN-DDB1 (Homo sapiens, UniProt Q96SW2); assay: Compound binding to CRBN by HTRF assay; settings: CRBN-DDB1 2.5 nM, Cy5-Thalidomide 100 nM, 30 min; Ki from geometric mean IC50 by Cheng-Prustoff transformation
Method in brief: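 HTRF displacement of Cy5-thalidomide probe (100 nM) from His-CRBN-DDB1 (2.5 nM) with anti-His terbium cryptate, in HEPES/NaCl/TCEP/EDTA/Tween20 buffer. 10-point 1:3 compound series, 30 min at ambient temperature; signal normalised to DMSO and lenalidomide controls, IC50 fitted and Ki derived by Cheng-Prusoff.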

[2] = biological target: T1, CDK2 (Homo sapiens, UniProt P24941); assay: HiBiT assay (CDK2 degradation); assay type: cell-based; settings: HEK293 clonal line with CRISPR KI HiBiT tag on CDK2, 24 hours, HiBiT Lysis Reagent
T1 construct: HEK293 clonal lines with CRISPR KI HiBiT tag on CDK2 proteins; host or cells: HEK293 clonal line, CRISPR knock-in HiBiT-CDK2, stably expressing LgBiT
Experimental: HEK293 clonal lines with CRISPR KI HiBiT tag on CDK2 proteins and stably expressing LgBiT protein were obtained from Promega (Madison, WI). Cells were plated at 5000 cells per well using Multiflo (BioTek) in 384-well white solid bottom plates (Corning, 3570BC) in 25 ul volume in DMEM media (DMEM, high glucose, HEPES, no phenol red (ThermoFisher Scientific, 21063029)) containing 10% FBS (Corning, 35-075-CV), 1% Penicillin/Streptomycin (ThermoFisher Scientific, 15140-122). Cells were incubated for 16 hours at 37° C., 5% CO2. 75 nL of a compound at 30 μM were dosed into the plate using an Echo® 650 liquid handler (Labcyte). Cells were incubated at 37° C., 5% CO2 for 24 hours. 5 ul of HiBiT Lysis Reagent (Promega, N3030) is added using Combi Multidrop (ThermoFisher Scientific), plates are incubated for 15′ at 37° C., 5% CO2 and then signal was read on a Pherastar FSX using “LUM plus” optic module.
Analysis was performed in Scinamic (Scinamic, Cambridge, MA). Luminescence response (R) was calculated by the formula: response=100*(S−N)/(P−N) where S is the signal of the well, N and P the mean negative and positive control values respectively of the same plate. The luminescence response was then fitted in Scinamic using a 3-parameter agonist logistic fit (hillslope=1, EC50>0, top/bottom unconstrained).

CRBN-DDB1, sequence (Q96SW2 whole entry): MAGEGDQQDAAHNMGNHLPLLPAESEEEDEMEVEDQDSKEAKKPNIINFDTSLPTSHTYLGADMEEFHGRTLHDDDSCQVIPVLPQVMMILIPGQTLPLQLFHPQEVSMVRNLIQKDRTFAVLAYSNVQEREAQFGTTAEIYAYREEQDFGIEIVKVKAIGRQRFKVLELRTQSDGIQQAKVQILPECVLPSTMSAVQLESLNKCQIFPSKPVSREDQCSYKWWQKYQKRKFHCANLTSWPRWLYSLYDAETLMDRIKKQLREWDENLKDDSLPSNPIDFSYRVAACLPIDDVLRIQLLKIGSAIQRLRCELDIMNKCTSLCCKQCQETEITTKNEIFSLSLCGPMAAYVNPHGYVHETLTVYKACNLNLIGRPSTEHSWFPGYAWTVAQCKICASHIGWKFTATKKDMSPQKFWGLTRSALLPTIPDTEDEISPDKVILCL
CRBN-DDB1, sequence (Q16531 whole entry partner): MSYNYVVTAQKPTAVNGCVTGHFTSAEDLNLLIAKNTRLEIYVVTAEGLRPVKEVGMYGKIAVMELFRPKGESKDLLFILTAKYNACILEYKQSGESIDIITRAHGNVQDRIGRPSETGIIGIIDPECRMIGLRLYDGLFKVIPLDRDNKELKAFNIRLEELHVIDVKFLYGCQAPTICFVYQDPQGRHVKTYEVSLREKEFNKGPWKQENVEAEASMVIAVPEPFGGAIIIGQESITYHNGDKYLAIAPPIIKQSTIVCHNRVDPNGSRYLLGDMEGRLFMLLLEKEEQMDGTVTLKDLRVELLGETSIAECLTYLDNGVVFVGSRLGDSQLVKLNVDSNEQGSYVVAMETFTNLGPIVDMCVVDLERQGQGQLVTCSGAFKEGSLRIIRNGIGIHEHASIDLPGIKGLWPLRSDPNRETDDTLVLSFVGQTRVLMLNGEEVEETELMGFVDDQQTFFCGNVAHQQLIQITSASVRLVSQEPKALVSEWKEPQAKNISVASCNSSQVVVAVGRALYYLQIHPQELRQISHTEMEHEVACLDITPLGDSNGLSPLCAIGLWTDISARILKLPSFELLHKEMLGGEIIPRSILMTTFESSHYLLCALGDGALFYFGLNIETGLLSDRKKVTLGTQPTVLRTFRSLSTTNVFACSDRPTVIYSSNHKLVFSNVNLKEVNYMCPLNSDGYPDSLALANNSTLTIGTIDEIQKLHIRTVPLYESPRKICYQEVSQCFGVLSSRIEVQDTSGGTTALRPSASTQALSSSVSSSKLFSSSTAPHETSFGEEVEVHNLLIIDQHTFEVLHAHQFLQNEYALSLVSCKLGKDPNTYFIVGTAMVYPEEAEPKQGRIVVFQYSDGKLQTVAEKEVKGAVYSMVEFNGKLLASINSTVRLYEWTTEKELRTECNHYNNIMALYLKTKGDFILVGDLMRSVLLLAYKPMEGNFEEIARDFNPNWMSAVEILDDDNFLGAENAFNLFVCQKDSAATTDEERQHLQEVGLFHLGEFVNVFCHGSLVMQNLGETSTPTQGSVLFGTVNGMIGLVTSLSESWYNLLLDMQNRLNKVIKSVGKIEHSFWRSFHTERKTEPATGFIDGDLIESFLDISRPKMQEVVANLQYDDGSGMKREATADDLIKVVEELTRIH

SMILES | pKi [1] | Dmax [2]
C[C@H]1CCC[C@@H]1OC(=O)NCc1ccc2c(c1)C(=O)N(C1CCC(=O)NC1=O)C2 (stereo partly drawn) [Compound 32, (1S,2S)-2-methylcyclopentyl N-{[2-(2,6-dioxopiperidin-3-yl)-3-oxo-2,3-dihydro-1H-isoindol-5-yl]methyl}carbamate] | 6.00 to 7.00 | 10 to 50%
O=C1CCC(N2Cc3ccc(CNC(=O)OCCOC4COC4)cc3C2=O)C(=O)N1 (stereo not shown) [Compound 33, 2-(oxetan-3-yloxy)ethyl N-{[2-(2,6-dioxopiperidin-3-yl)-3-oxo-2,3-dihydro-1H-isoindol-5-yl]methyl}carbamate] | 6.00 to 7.00 | 10 to 50%
CN1CCC(COC(=O)NCc2ccc3c(c2)C(=O)N(C2CCC(=O)NC2=O)C3)CC1 (stereo not shown) [Compound 34, (1-methylpiperidin-4-yl)methyl N-{[2-(2,6-dioxopiperidin-3-yl)-3-oxo-2,3-dihydro-1H-isoindol-5-yl]methyl}carbamate] | 6.00 to 7.00 | ≤ 10%
O=C1CCC(N2Cc3ccc(CNC(=O)OC4Cc5ccccc54)cc3C2=O)C(=O)N1 (stereo not shown) [Compound 35, bicyclo[4.2.0]octa-1,3,5-trien-7-yl N-{[2-(2,6-dioxopiperidin-3-yl)-3-oxo-2,3-dihydro-1H-isoindol-5-yl]methyl}carbamate] | ≥ 7.00 | 10 to 50%
CN1C(=O)CCC1COC(=O)NCc1ccc2c(c1)C(=O)N(C1CCC(=O)NC1=O)C2 (stereo not shown) [Compound 36, (1-methyl-5-oxopyrrolidin-2-yl)methyl N-{[2-(2,6-dioxopiperidin-3-yl)-3-oxo-2,3-dihydro-1H-isoindol-5-yl]methyl}carbamate] | ≥ 7.00 | ≤ 10%
O=C1CCC(N2Cc3ccc(CNC(=O)OCC4(c5ccccc5)CC(F)(F)C4)cc3C2=O)C(=O)N1 (stereo not shown) [Compound 38, (3,3-difluoro-1-phenylcyclobutyl)methyl N-{[2-(2,6-dioxopiperidin-3-yl)-3-oxo-2,3-dihydro-1H-isoindol-5-yl]methyl}carbamate] | ≥ 7.00 | 10 to 50%
CN1CCC(COC(=O)NCc2ccc3c(c2)C(=O)N(C2CCC(=O)NC2=O)C3)C1 (stereo not shown) [Compound 39, (1-methylpyrrolidin-3-yl)methyl N-{[2-(2,6-dioxopiperidin-3-yl)-3-oxo-2,3-dihydro-1H-isoindol-5-yl]methyl}carbamate] | 6.00 to 7.00 | ≤ 10%
CN1CCC(OC(=O)NCc2ccc3c(c2)C(=O)N(C2CCC(=O)NC2=O)C3)C1 (stereo not shown) [Compound 40, 1-methylpyrrolidin-3-yl N-{[2-(2,6-dioxopiperidin-3-yl)-3-oxo-2,3-dihydro-1H-isoindol-5-yl]methyl}carbamate] | 6.00 to 7.00 | ≤ 10%
O=C1CCC(N2Cc3ccc(CNC(=O)OCC4CCCCO4)cc3C2=O)C(=O)N1 (stereo not shown) [Compound 41, (oxan-2-yl)methyl N-{[2-(2,6-dioxopiperidin-3-yl)-3-oxo-2,3-dihydro-1H-isoindol-5-yl]methyl}carbamate] | 6.00 to 7.00 | 10 to 50%
O=C1CCC(N2Cc3ccc(CNC(=O)OCC4CCOC4)cc3C2=O)C(=O)N1 (stereo not shown) [Compound 43, (oxolan-3-yl)methyl N-{[2-(2,6-dioxopiperidin-3-yl)-3-oxo-2,3-dihydro-1H-isoindol-5-yl]methyl}carbamate] | ≥ 7.00 | 10 to 50%
O=C1CCC(N2Cc3ccc(CNC(=O)OCC4CC(F)(F)C4)cc3C2=O)C(=O)N1 (stereo not shown) [Compound 46, (3,3-difluorocyclobutyl)methyl N-{[2-(2,6-dioxopiperidin-3-yl)-3-oxo-2,3-dihydro-1H-isoindol-5-yl]methyl}carbamate] | ≥ 7.00 | 10 to 50%
O=C1CCC(N2Cc3ccc(CNC(=O)OCCC4CC(F)(F)C4)cc3C2=O)C(=O)N1 (stereo not shown) [Compound 47, 2-(3,3-difluorocyclobutyl)ethyl N-{[2-(2,6-dioxopiperidin-3-yl)-3-oxo-2,3-dihydro-1H-isoindol-5-yl]methyl}carbamate] | 6.00 to 7.00 | 10 to 50%
O=C1CCC(N2Cc3ccc(CNC(=O)OCC4CC45CCOCC5)cc3C2=O)C(=O)N1 (stereo not shown) [Compound 52, {6-oxaspiro[2.5]octan-1-yl}methyl N-{[2-(2,6-dioxopiperidin-3-yl)-3-oxo-2,3-dihydro-1H-isoindol-5-yl]methyl}carbamate] | 6.00 to 7.00 | 10 to 50%
O=C1CCC(N2Cc3ccc(CNC(=O)OCC4CCC(F)(F)C4)cc3C2=O)C(=O)N1 (stereo not shown) [Compound 54, (3,3-difluorocyclopentyl)methyl N-{[2-(2,6-dioxopiperidin-3-yl)-3-oxo-2,3-dihydro-1H-isoindol-5-yl]methyl}carbamate] | 6.00 to 7.00 | 10 to 50%
CC1(COC(=O)NCc2ccc3c(c2)C(=O)N(C2CCC(=O)NC2=O)C3)CCCCO1 (stereo not shown) [Compound 64, (2-methyloxan-2-yl)methyl N-{[2-(2,6-dioxopiperidin-3-yl)-3-oxo-2,3-dihydro-1H-isoindol-5-yl]methyl}carbamate] | ≥ 7.00 | 10 to 50%
CC1(CCCOC(=O)NCc2ccc3c(c2)C(=O)N(C2CCC(=O)NC2=O)C3)CC1 (stereo not shown) [Compound 65, 3-(1-methylcyclopropyl)propyl N-{[2-(2,6-dioxopiperidin-3-yl)-3-oxo-2,3-dihydro-1H-isoindol-5-yl]methyl}carbamate] | ≥ 7.00 | 50 to 80%
COC1CC(COC(=O)NCc2ccc3c(c2)C(=O)N(C2CCC(=O)NC2=O)C3)C1 (stereo not shown) [Compound 66, (3-methoxycyclobutyl)methyl N-{[2-(2,6-dioxopiperidin-3-yl)-3-oxo-2,3-dihydro-1H-isoindol-5-yl]methyl}carbamate] | 6.00 to 7.00 | 10 to 50%
CCOC1CC(COC(=O)NCc2ccc3c(c2)C(=O)N(C2CCC(=O)NC2=O)C3)C1 (stereo not shown) [Compound 67, (3-ethoxycyclobutyl)methyl N-{[2-(2,6-dioxopiperidin-3-yl)-3-oxo-2,3-dihydro-1H-isoindol-5-yl]methyl}carbamate] | 6.00 to 7.00 | 10 to 50%
CC(C)(CCOC(=O)NCc1ccc2c(c1)C(=O)N(C1CCC(=O)NC1=O)C2)C1CC1 (stereo not shown) [Compound 69, 3-cyclopropyl-3-methylbutyl N-{[2-(2,6-dioxopiperidin-3-yl)-3-oxo-2,3-dihydro-1H-isoindol-5-yl]methyl}carbamate] | ≥ 7.00 | 50 to 80%
O=C1CCC(N2Cc3ccc(CNC(=O)OCC4(F)CCC4)cc3C2=O)C(=O)N1 (stereo not shown) [Compound 74, (1-fluorocyclobutyl)methyl N-{[2-(2,6-dioxopiperidin-3-yl)-3-oxo-2,3-dihydro-1H-isoindol-5-yl]methyl}carbamate] | 6.00 to 7.00 | ≤ 10%
CC(C)(C)C1CC(OC(=O)NCc2ccc3c(c2)C(=O)N(C2CCC(=O)NC2=O)C3)C1 (stereo not shown) [Compound 84, 3-tert-butylcyclobutyl N-{[2-(2,6-dioxopiperidin-3-yl)-3-oxo-2,3-dihydro-1H-isoindol-5-yl]methyl}carbamate] | 6.00 to 7.00 | 50 to 80%
O=C1CCC(N2Cc3ccc(CNC(=O)OCC4C(F)(F)C45CC5)cc3C2=O)C(=O)N1 (stereo not shown) [Compound 86, {2,2-difluorospiro[2.2]pentan-1-yl}methyl N-{[2-(2,6-dioxopiperidin-3-yl)-3-oxo-2,3-dihydro-1H-isoindol-5-yl]methyl}carbamate] | ≥ 7.00 | 50 to 80%
O=C1CCC(N2Cc3ccc(CNC(=O)OCC4CCC(F)(F)CC4)cc3C2=O)C(=O)N1 (stereo not shown) [Compound 88, (4,4-difluorocyclohexyl)methyl N-{[2-(2,6-dioxopiperidin-3-yl)-3-oxo-2,3-dihydro-1H-isoindol-5-yl]methyl}carbamate] | 6.00 to 7.00 | 10 to 50%
CC(C)C1CCC(OC(=O)NCc2ccc3c(c2)C(=O)N(C2CCC(=O)NC2=O)C3)CC1 (stereo not shown) [Compound 89, 4-(propan-2-yl)cyclohexyl N-{[2-(2,6-dioxopiperidin-3-yl)-3-oxo-2,3-dihydro-1H-isoindol-5-yl]methyl}carbamate] | 6.00 to 7.00 | 50 to 80%
O=C1CCC(N2Cc3ccc(CNC(=O)OC4CC5(CCOCC5)C4)cc3C2=O)C(=O)N1 (stereo not shown) [Compound 90, 7-oxaspiro[3.5]nonan-2-yl N-{[2-(2,6-dioxopiperidin-3-yl)-3-oxo-2,3-dihydro-1H-isoindol-5-yl]methyl}carbamate] | 6.00 to 7.00 | 10 to 50%
O=C1CCC(N2Cc3ccc(CNC(=O)OCC4CC5(C4)CC54CCC4)cc3C2=O)C(=O)N1 (stereo not shown) [Compound 93, {dispiro[3.0.3^5.1^4]nonan-2-yl}methyl N-{[2-(2,6-dioxopiperidin-3-yl)-3-oxo-2,3-dihydro-1H-isoindol-5-yl]methyl}carbamate] | ≥ 7.00 | 50 to 80%
